# Laboratory results: US7659404B2, “Broad spectrum 2-(substituted-amino)-benzothiazole sulfonamide HIV protease inhibitors” (Tibotec Pharmaceuticals Ltd., priority 2001, dated 2010)
# Like-named read-outs stand apart in the source and are kept apart here.
# What was measured:
# HIV-1 strain LAI = test: Cellular anti-HIV assay in MT4 cells (MTT), wild type laboratory strain; format: cell-based; conditions: read-out: EC50 value against HIV-1 strain LAI
# Experimental: The compounds of the present invention were examined for anti-viral activity in a cellular assay. […] The cellular assay was performed according to the following procedure.
# Cellular Assay Experimental Method:
# HIV- or mock-infected MT4 cells were incubated for five days in the presence of various concentrations of the inhibitor. At the end of the incubation period, all HIV-infected cells have been killed by the replicating virus in the control cultures in the absence of any inhibitor. Cell viability is measured by measuring the concentration of MTT, a yellow, water soluble tetrazolium dye that is converted to a purple, water insoluble formazan in the mitochondria of living cells only. Upon solubilization of the resulting formazan crystals with isopropanol, the absorbance of the solution is monitored at 540 nm. The values correlate directly to the number of living cells remaining in the culture at the completion of the five day incubation. The inhibitory activity of the compound was monitored on the virus-infected cells and was expressed as EC50 and EC90. These values represent the amount of the compound required to protect 50% and 90%, respectively, of the cells from the cytopathogenic effect of the virus. The toxicity of the compound was measured on the mock-infected cells and was expressed as CC50, which represents the concentration of compound required to inhibit the growth of the cells by 50%. The selectivity index (SI) (ratio CC50/EC50) is an indication of the selectivity of the anti-HIV activity of the inhibitor.
# virus strain F (R13025) = test: microbe, parasite or virus in culture; format: cell-based, HIV; conditions: FR=EC50(mutant strain)/EC50(HIV-1 strain LAI); strain F
# Method in brief: (§1)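 MT4 cells, HIV or mock infection, 5 d with compound dilutions; MTT readout, formazan in isopropanol, A540. EC50/EC90 = conc. protecting 50/90% of cells from CPE; CC50 from mock-infected cells. FR = EC50 mutant/EC50 LAI.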
# virus strain S (R13080) = test: microbe, parasite or virus in culture; format: cell-based, HIV; conditions: FR=EC50(mutant strain)/EC50(HIV-1 strain LAI); strain S
# Method in brief: as §1
# [1] = Pharmacokinetics after oral dosing in rats (LC-MS); format: in vivo, Whistar rats; conditions: for concentration at 3 h / Cmax: Wistar, blood, 10 mg/kg, or, rat, 10 mpk, DMSO; for concentration at 3 h: oral, read-out: C3hours; for Cmax: po
# Experimental: (§2) The pharmacokinetic properties of compounds 20, 88 and 90 were tested on rats and dogs. The compounds were evaluated in Whistar rats, source Iffa Credo, weighing approximately 350 g. Before dosing the animals were fasted overnight (approximately 12 h fasting period). The compounds were dissolved in DMSO. The results represented in the table concern the results from the oral dosing of the compounds. Blood was sampled at 30 min, 1 h, 2 h, 3 h, no pre-dose sample was taken. The amount of the compound in the biological sample was determined using LC-MS. In the table below “or” means oral dosing, “mpk” means mg per kilogram.
# [2] = Pharmacokinetics after oral dosing in dogs (LC-MS); format: in vivo; conditions: blood, 10 mg/kg, or, dog, 10 mpk
# Experimental: as §2
# [3] = tested on: clinically isolated HIV strain H; format: cell-based; conditions: FR=EC50(mutant strain)/EC50(HIV-1 strain LAI)
# Method in brief: as §1
# [4] = tested on: clinically isolated HIV strain I; format: cell-based; conditions: FR=EC50(mutant strain)/EC50(HIV-1 strain LAI)
# Method in brief: as §1
# [5] = tested on: clinically isolated HIV strain J; format: cell-based; conditions: FR=EC50(mutant strain)/EC50(HIV-1 strain LAI)
# Method in brief: as §1
# [6] = tested on: clinically isolated HIV strain O; format: cell-based; conditions: FR=EC50(mutant strain)/EC50(HIV-1 strain LAI)
# Method in brief: as §1
# [7] = tested on: clinically isolated HIV strain T; format: cell-based; conditions: FR=EC50(mutant strain)/EC50(HIV-1 strain LAI)
# Method in brief: as §1
# [8] = Human immunodeficiency virus 1, 120 h, MT4 cells, five days, MTT
Structure (SMILES),"EC50 (HIV-1 strain LAI; Human immunodeficiency virus 1, MT4, 120 h) [nM]","fold resistance (FR), strain F (virus strain F (R13025))","fold resistance (FR), strain S (virus strain S (R13080))",concentration at 3 h [1] [ng/mL],Cmax [1] [ng/mL],"plasma level ([1]; oral dosing, comment on Table 8 (rats and dogs))",Cmax ([2]; DMSO) [ng/mL],"fold resistance (FR), strain H [3]","fold resistance (FR), strain I [4]","fold resistance (FR), strain J [5]","fold resistance (FR), strain O [6]","fold resistance (FR), strain T [7]",EC50 (HIV-1 strain LAI; [8]) [nM],Cmax ([2]; (PEG)) [ng/mL]
CC(C)CN(C[C@@H](O)[C@H](Cc1ccccc1)NC(=O)O[C@H]1CO[C@H]2OCC[C@H]21)S(=O)(=O)c1ccc2nc(NCCN3CCCC3)sc2c1 [Compound 20],50 to 500,0.5,0.5,401,1420,high,713,0.5,0.4,0.2,0.2,2.6,,
CC(C)CN(C[C@@H](O)[C@H](Cc1ccccc1)NC(=O)O[C@H]1CO[C@H]2OCC[C@H]21)S(=O)(=O)c1ccc2nc(N(C)CCCN(C)C)sc2c1 [Compound 88],,8.7,26.3,225,254,,,,,,,,< 50,379
CC(C)CN(C[C@@H](O)[C@H](Cc1ccccc1)NC(=O)O[C@H]1CCOC1)S(=O)(=O)c1ccc2nc(NCCN(C)C)sc2c1 [Compound 90],,28.8,128.8,684,893,,550,,,,,,< 50,
